Test results reported in US20200030355A1, “COMBINATION THERAPY FOR TREATING CANCER” (Epizyme, Inc., priority 2014, published 2020).

Experiments:
[1] = test system: MOLM-13 (MLL-AF9); experiment: Combination proliferation study with Compound A2 (ATP/CellTiter-Glo, Chou-Talalay combination index); type: cell-based, human; conditions: for Combination with Compound A2, MOLM13: Table 5
Method: (§1) The acute myelogenous leukemia cell lines MV4-11 (MLL-AF4) and MOLM-13 (MLL-AF9) were obtained from American Type Culture Collection (ATCC; Rockville, Md.) and Deutsche Sammlung von Mikroorganismen and Zellkulturen (DSMZ; Braunschweig, Germany) respectively.
(§2) Studies were performed using MLL-rearranged cell lines in vitro to evaluate the anti-proliferative effect of a combination of two agents together on cell growth. Initial proliferation studies were performed to determine the IC50 of a given compound in each cell line. The cell counts were measured by ATP quantitation using the Promega Cell Titer Glo kit and luminescence values corresponded to the amount of ATP in a given well.
(§3) Compounds were evaluated for synergy in the co-treatment phase by testing the compounds in a concentration range which was bracketed around their IC50 values. The compounds were plated to a 96 well plate in a matrix format (FIG. 3) which includes increasing concentrations of each drug in the combination in a constant ratio, in addition to the effect of each compound alone in the study. Cells were seeded and grown in the log-linear phase for 3 or 7 days in the co-treatment phase. Minimum inhibition (DMSO alone) controls were used in each plate to calculate fraction affected (Fa) of a test well. DMSO concentration was kept at 0.1% v/v.
(§4) The drug combination analysis was performed utilizing the Chou-Talalay method Synergy was determined using the software package Calcusyn by Biosoft. The combination index (CI) is a quantitative term used to describe the level of synergy or antagonism in a given test system. A combination index less than one indicates synergy, and a CI greater than one indicates antagonism. Further, strong synergism is achieved when the CI value falls below 0.3.
(§5) Graphs representing values of combination index (CI) versus Fractional effect (Fa) known as Fa-CI plots were generated and synergy was evaluated. Drug synergy was statistically defined by CI values less than 1, antagonism by CI>1 and additive effect by CI equal to 1.
Graphs representing values of combination index (CI) versus Fractional effect (Fa) known as Fa-CI plots were generated and synergy was evaluated. Drug synergy was statistically defined by CI values less than 1, antagonism by CI>1 and additive effect by CI equal to 1. […]
Cell viability was measured via ATP content using CellTiter-Glo® (Promega).
as §2, with “Proliferation studies” for “Studies”, “MOLM-13, MV4-11 and SKM-1” for “MLL-rearranged”, “cancer cell killing” for “anti-proliferative”, “IC50 values” for “IC50”, “correspond” for “corresponded”, “well. […]” for “well.”
Compounds evaluated for synergy in the co-treatment phase were tested in a range which was bracketed around the IC50's.

[2] = test system: MV4-11 (MLL-AF4); experiment: as above; type: cell-based, human; conditions: for Combination with Compound A2, MV4-11 (MLL-AF4): 7 Day Cotreatment Model, Table 4; for Combination with Compound A2, MV4-111 MLL-AF4: Table 2, Example 3
Method: as §1, §2, §3, §4, §5, §5
The HP-D300 digital dispenser (Tecan) was used to dispense compounds in a combinatorial matrix. […] Cell viability was measured via ATP content using CellTiter-Glo® (Promega).
Viability was determined using CellTiter-Glo® (Promega).
as §2, with “Proliferation studies” for “Studies”, “MOLM-13, MV4-11 and SKM-1” for “MLL-rearranged”, “cancer cell killing” for “anti-proliferative”, “IC50 values” for “IC50”, “correspond” for “corresponded”
These studies were performed to evaluate both the combinatorial effect of compounds on cell killing and the durability of the effect by washing out one of the agents.
Compounds evaluated for synergy in the co-treatment phase were tested in a range which was bracketed around the IC50's. The compounds were plated to a 96 well plate in a matrix format which includes increasing concentrations of each drug in the combination in a constant ratio, in addition to the effect of each compound alone in the study.

[3] = 7 Day Cotreatment Model, Table 4

SMILES	Combination with Compound A2, MOLM-13 (MLL-AF9) [1, 3]	Combination with Compound A2, MV4-11 (MLL-AF4) [2]	other results
N[C@@H]1C[C@H]1c1ccccc1 (racemic) [Tranylcypromine]	Strong Synergy	Synergy (Drug synergy was statistically defined by CI values less than 1)	Combination of Compound A2 and anti-cancer agent, MOLM-13 ([1]; 7 Day Cotreatment): synergy; Combination of Compound A2 and anti-cancer agent, MV4-11 ([2]; 7 Day Cotreatment): synergy
CC1(C)CCC(CN2CCN(c3ccc(C(=O)NS(=O)(=O)c4ccc(NCC5CCOCC5)c([N+](=O)[O-])c4)c(Oc4cnc5[nH]ccc5c4)c3)CC2)=C(c2ccc(Cl)cc2)C1 [ABT-199]	Additive --> Synergy	Synergy (Drug synergy was statistically defined by CI values less than 1)	–
C[C@@H]1COCCN1c1cc(C2(S(C)(=O)=O)CC2)nc(-c2cccc3[nH]ccc23)n1 [AZ20]	–	–	Combination with Compound A2, MOLM13 ([1]; 7 Day Cotreatment Model): Synergy (Drug synergy was statistically defined by CI values less than 1)
Cn1c(=O)n(-c2ccc(C(C)(C)C#N)cc2)c2c3cc(-c4cnc5ccccc5c4)ccc3ncc21 [BEZ235]	–	–	Combination with Compound A2, MOLM13 ([1]; 7 Day Cotreatment Model): Additive (additive effect by CI equal to 1)
Nc1nc(Cl)nc2c1ncn2[C@@H]1O[C@H](CO)[C@@H](O)[C@@H]1F [Clofarabine]	Synergy (Drug synergy was statistically defined by CI values less than 1)	Synergy (Drug synergy was statistically defined by CI values less than 1)	–
O=C(Nc1ccncc1)c1cc([N+](=O)[O-])ccc1Cl [Compound T0070907]	–	–	Combination with Compound A2, MOLM13 ([1]; 7 Day Cotreatment Model): Additive (additive effect by CI equal to 1); Combination with EPZ-5676 ([1]; MOLM-13 cells, co-treatment model of Example 3): Synergy (Drug synergy was statistically defined by CI values less than 1)
Nc1ncn([C@H]2C[C@H](O)[C@@H](CO)O2)c(=O)n1 [Decitabine]	Synergy (Drug synergy was statistically defined by CI values less than 1)	Synergy (Drug synergy was statistically defined by CI values less than 1)	Combination with Compound A2, MOLM-13 (MLL-AF9) ([1]; Table 2, Example 3): Synergy (Drug synergy was statistically defined by CI values less than 1); Combination with Compound A2, MV4-111 MLL-AF4 [2]: Synergy (Drug synergy was statistically defined by CI values less than 1)
Nc1nc(F)nc2c1ncn2[C@@H]1O[C@H](CO)[C@@H](O)[C@@H]1O [Fludarabine]	Synergy (Drug synergy was statistically defined by CI values less than 1)	–	–
NC(=O)NO [Hydroxyurea]	Synergy (Drug synergy was statistically defined by CI values less than 1)	Synergy (Drug synergy was statistically defined by CI values less than 1)	–
C=CC(=O)N1CCC[C@@H](n2nc(-c3ccc(Oc4ccccc4)cc3)c3c(N)ncnc32)C1 [Ibrutinib]	–	Synergy (Drug synergy was statistically defined by CI values less than 1)	–
Cc1sc2c(c1C)C(c1ccc(Cl)cc1)=N[C@@H](CC(=O)OC(C)(C)C)c1nnc(C)n1-2 [JQ1]	Additive (additive effect by CI equal to 1)	Additive (additive effect by CI equal to 1)	Combination with Compound A2, MOLM-13 (MLL-AF9) ([1]; Table 2, Example 3): Additive (additive effect by CI equal to 1); Combination with Compound A2, MV4-111 MLL-AF4 [2]: Additive (additive effect by CI equal to 1)
Nc1cccc2c1CN(C1CCC(=O)NC1=O)C2=O (stereo not shown) [Lenalidomide]	Combination Benefit	–	–
